Measured values reported in patent publication US20050187221A1, “Method of treating ischemia reperfusion injury” (Japan Tobacco Inc., priority 2003, published 2005).
Structures can show the parent of a compound that is named as a salt.

What was measured:
IL-1β = assay: Tissue level of IL-1β in the myocardium after reperfusion (ELISA); assay type: ex vivo (isolated Langendorff-perfused heart after in vivo dosing), Sprague-Dawley rats; conditions: 10 mg/kg intraperitoneally; after 60 min reperfusion; mean±SEM; C group 3700±700, not statistically significantly different
Experimental: (§1) Sixteen Sprague-Dawley rats (300 g, male) were divided into a control group (“C group,” n=8) and a group administered (−)-ethyl N-{3,5-dichloro-2-hydroxy-4-[2-(4-methylpiperazin-1-yl)ethoxy]benzoyl}-L-phenylalaninate dihydrochloride (“J group,” n=8). All rats were anesthesized by intraperitoneal injection of sodium pentobarbital (50 mg/kg), and either (a) 0.5 mL of saline (C group) or (b) 10 mg/kg of (−)-ethyl N-{3,5-dichloro-2-hydroxy-4-[2-(4-methylpiperazin-1-yl)ethoxy]benzoyl}-L-phenylalaninate dihydrochloride dissolved in 5% mannitol (J group) was administered intraperitoneally to the rats. Anticoagulation was ensured by the intraperitoneal administration of 200 USP units of heparin. […]
(§2) After stabilization, heart rate (HR), left ventricular developed pressure (LVDP), maximum dP/dt (maximum dP/dt), and coronary flow (CF) were measured with LV diastolic pressure stabilized at 10 mm Hg. […] HR, LVDP, maximum dP/dt, and CF were continuously measured after reperfusion and analyzed using a Polygraph System (Nihon Kouden, Japan).
(§3) After 60 minutes of reperfusion, frozen sections of the hearts were made and stored at −80° C. for further assessment. […] The concentrations of tissue inflammatory cytokines were measured using ELISA kits (TNF-α, IL-1β, and IL-6: Biosource International, California; and IL-8: Immuno-Biological Laboratories, Gunma, Japan) according to the manufacturer's recommendation. […]

TNF-α = assay: Tissue level of TNF-α in the myocardium after reperfusion (ELISA); set-up: species or system Sprague-Dawley rats; conditions: 10 mg/kg intraperitoneally; after 60 min reperfusion; mean±SEM; C group 550±80, p<0.05
Experimental: as §1, §2, §3

IL-6 = assay: Tissue level of IL-6 in the myocardium after reperfusion (ELISA); assay type: ex vivo (isolated Langendorff-perfused heart, dosed in vivo), Sprague-Dawley rats; conditions: 10 mg/kg intraperitoneally; after 60 min reperfusion; mean±SEM; C group 300±80, p<0.05
Experimental: as §1, §2, §3

[1] = test system: cardiac myocytes (CPK leakage); assay: Creatine phosphokinase (CPK) leakage into the coronary effluent after reperfusion; assay type: ex vivo (isolated perfused hearts from dosed rats), Sprague-Dawley rats; conditions: 10 mg/kg intraperitoneally; coronary effluent for 60 minutes after reperfusion; mean±SEM; C group 140±61, p<0.05
Experimental: as §1
as §2, with “Japan). […]” for “Japan).”
There were significant differences between the two groups, however, following global ischemia and reperfusion. FIGS. 1 and 2 depict the cardiac function (as measured by LVDP and maximum dP/dt) after ischemia reperfusion between the C and J groups. For the following parameters, data are expressed as mean±standard error of the mean (SEM). […]

IL-8 = assay: Tissue level of IL-8 in the myocardium after reperfusion (ELISA); assay type: ex vivo (isolated Langendorff-perfused heart), Sprague-Dawley rats; conditions: 10 mg/kg intraperitoneally; after 60 min reperfusion; mean±SEM; C group 240±40, p<0.05
Experimental: as §1, §2, §3

[2] = test system: hearts of Sprague-Dawley rats (myocardial ischemia reperfusion injury); assay: Cardiac function of isolated Langendorff-perfused rat hearts after 30 min global ischemia and 60 min reperfusion; assay type: ex vivo
Experimental: Sixteen Sprague-Dawley rats (300 g, male) were divided into a control group (“C group,” n=8) and a group administered (−)-ethyl N-{3,5-dichloro-2-hydroxy-4-[2-(4-methylpiperazin-1-yl)ethoxy]benzoyl}-L-phenylalaninate dihydrochloride (“J group,” n=8). All rats were anesthesized by intraperitoneal injection of sodium pentobarbital (50 mg/kg), and either (a) 0.5 mL of saline (C group) or (b) 10 mg/kg of (−)-ethyl N-{3,5-dichloro-2-hydroxy-4-[2-(4-methylpiperazin-1-yl)ethoxy]benzoyl}-L-phenylalaninate dihydrochloride dissolved in 5% mannitol (J group) was administered intraperitoneally to the rats. Anticoagulation was ensured by the intraperitoneal administration of 200 USP units of heparin.
Ten minutes after the administration of heparin and either (a) saline (C group) or (b) 10 mg/kg of (−)-ethyl N-{3,5-dichloro-2-hydroxy-4-[2-(4-methylpiperazin-1-yl)ethoxy]benzoyl}-L-phenylalaninate dihydrochloride dissolved in 5% mannitol (J group), the hearts of the rats were excised and perfused with modified Krebs-Henseleit buffer (120.0 mM NaCl, 4.5 mM KCl, 20.0 mM NaHCO3, 1.2 mM KH2PO4, 1.2 MgCl2, 2.5 mM CaCl2, and 10.0 mM glucose: gassed with 95% O2+5% CO2 to obtain a pH of 7.4 at 37° C.) at the pressure equal to 1 m H2O by means of a Langendorff apparatus. A thin-wall latex balloon was inserted into the left ventricle through the left atrium to monitor left ventricular pressure and to control left ventricular volume.
After stabilization, heart rate (HR), left ventricular developed pressure (LVDP), maximum dP/dt (maximum dP/dt), and coronary flow (CF) were measured with LV diastolic pressure stabilized at 10 mm Hg. The hearts were subjected to global ischemia at 37° C. for 30 minutes, followed by 60 minutes of reperfusion. The balloon was deflated during ischemia, and the hearts were not paced during reperfusion. HR, LVDP, maximum dP/dt, and CF were continuously measured after reperfusion and analyzed using a Polygraph System (Nihon Kouden, Japan).
There were significant differences between the two groups, however, following global ischemia and reperfusion. FIGS. 1 and 2 depict the cardiac function (as measured by LVDP and maximum dP/dt) after ischemia reperfusion between the C and J groups. For the following parameters, data are expressed as mean±standard error of the mean (SEM). The difference in the data on functional recoveries were determined with one-way repeated measure ANOVA. The difference in the data on CPK leakage and tissue cytokine concentrations were determined with unpaired Student's t test. A p value of less than 0.05 was considered statistically significant.

`CCOC(=O)[C@H](Cc1ccccc1)NC(=O)c1cc(Cl)c(OCCN2CCN(C)CC2)c(Cl)c1O` [(−)-ethyl N-{3,5-dichloro-2-hydroxy-4-[2-(4-methylpiperazin-1-yl)ethoxy]benzoyl}-L-phenylalaninate dihydrochloride] was tested, and the “tissue level of IL-1β in the myocardium after reperfusion” value (IL-1β) was 2600±200 pg/mg tissue, the “tissue level of TNF-α in the myocardium after reperfusion” value (TNF-α) was 240±30 pg/mg tissue and the “tissue level of IL-6 in the myocardium after reperfusion” value (IL-6) was 60±7 pg/mg tissue. For the same compound, the “CPK leakage of the coronary effluent” value [1] was 2.9±2.0 IU/60 minutes, the “tissue level of IL-8 in the myocardium after reperfusion” value (IL-8) was 68±19 pg/mg tissue and the “peak value of percent recovery of LVDP after reperfusion” value ([2]; 10 mg/kg intraperitoneally 10 min before heart excision, 30 min global ischemia at 37° C., 60 min reperfusion, percentage of basal LVDP, mean±SEM, C group 39±6%, p<0.05) was 79±5%. The “peak value of percent recovery of maximum dP/dt after reperfusion” value ([2]; 10 mg/kg intraperitoneally 10 min before heart excision, 30 min global ischemia, 60 min reperfusion, percentage of basal maximum dP/dt, mean±SEM, C group 54±7%, p<0.05) was 80±4%, the “percent recovery of LVDP versus C group over time” value ([2]; 10 mg/kg intraperitoneally, at 20, 30, 40, 50, and 60 minutes after reperfusion) was “Significant improvements” and the “percent recovery of max dP/dt versus C group over time” value ([2]; 10 mg/kg intraperitoneally, at 30, 40, 50, and 60 minutes after reperfusion) was “significant improvement”.
